The structures appear in SMILES notation. Values joined by “and” are separate entries in the source; they are usually repeats but may differ in a detail not shown here. Identical values can stand only once. Active and inactive are the calls of the source.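 How the source made its calls: active means rising-signal curve whose EC50 is at most tenfold above the top concentration tested; inconclusive means flat fit with activity between 30% and 70%, or invalid fit; inactive means the rest.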 A value given as a limit tells only on which side of the number the result lay.

This assay deals with S. cerevisiae SKY197-pL101 polyadenylation reporter, beta-gal luminescence, 9 h. Description: yeast polyadenylation reporter signal increase, dose response, polyadenylation inhibitor project, S. cerevisiae SKY197-pL101, beta-gal luminescence (AID 2683).
Regarding `N#C/C(=C\c1cccc([N+](=O)[O-])c1)c1nc2ccccc2[nH]1`, the EC50 is > 12 µM (inactive).
`N#C/C(=C/c1ccc([N+](=O)[O-])o1)c1nc2ccccc2[nH]1`: the EC50 is 8.25 µM.
As to `Cc1cccc2[nH]c(/C(C#N)=C/c3ccc([N+](=O)[O-])o3)nc12`, the EC50 is 5.83 µM.
With `N#C/C(=C\c1ccc([N+](=O)[O-])o1)c1nc2ccccc2[nH]1`, the EC50 was 10.8 µM.
For the compound `Cc1ccc2nc(/C(C#N)=C/c3ccc([N+](=O)[O-])o3)[nH]c2c1`, the EC50 is 6.5 µM and 7.25 µM.
In the case of `N#C/C(=C\c1ccco1)c1nc2ccccc2[nH]1`, the EC50 was > 12 µM (inactive).
Consider `Cc1ccc2nc(/C(C#N)=C/c3ccc(C)o3)[nH]c2c1`, for which the EC50 is > 12 µM (inactive).

One may read the EC50 as the midpoint of the concentration-response curve.

The values are drawn from PubChem BioAssay AID2683 (Broad Institute, 2010).
